In PubChem BioAssay (NCI):
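Method: 48-hour compound exposure of cells in 96-well plates, five concentrations, linear interpolation of endpoints. At the GI50, growth is halved. TGI: total growth inhibition.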

Legend:
Experiment in all cases: NCI tumour cell line growth inhibition, 48 h
[1] = tested on: NCI/ADR-RES ovarian
[2] = tested on: IGROV1 ovarian
[3] = tested on: HOP-92 NSCLC
[4] = tested on: OVCAR-4 ovarian
[5] = tested on: SNB-19 CNS
[6] = tested on: M14 melanoma
[7] = tested on: K-562 leukemia
[8] = tested on: UACC-257 melanoma
[9] = tested on: NCI-H522 lung
[10] = tested on: A498 renal

With `COC1CC(NC(=O)C(F)(F)F)C(OC(C)=O)C(C)O1` (stereo not drawn) the TGI [1] was greater than 100 µM, the TGI [2] was greater than 100 µM and the TGI [3] was greater than 100 µM. For the same compound, the TGI [4] was greater than 100 µM, the TGI [5] was greater than 100 µM and the TGI [6] was greater than 100 µM. For the same compound, the TGI [7] was greater than 100 µM, the TGI [8] was greater than 100 µM and the TGI [9] was greater than 100 µM.
With `Cc1cn2c(/C=N/N=C(N)N)c(-c3cccnc3)nc2s1` the GI50 [1] was 2.81 µM, the TGI [1] was 9.97 µM and the GI50 [2] was 15.6 µM. For the same compound, the TGI [2] was 49.8 µM, the GI50 [3] was 16.8 µM and the TGI [3] was 33.4 µM. For the same compound, the GI50 [4] was 15.7 µM, the TGI [4] was 29.6 µM and the GI50 [5] was 12.7 µM. It also gave a TGI [5] of 28.9 µM, a GI50 [6] of 10 µM and a TGI [6] of 23.5 µM. The GI50 [8] was 16.5 µM, the TGI [8] was 35.4 µM and the GI50 [9] was 12.1 µM. For the same compound, the TGI [9] was 39.6 µM.
In the case of `COc1ccc2c(c1OC)OCC(CN(C)C)C2=O` (stereo not drawn), the TGI [1] is reported as 72.1 µM, the TGI [2] is reported as 35.4 µM and the TGI [3] is reported as 11.3 µM. For the same compound, the TGI [4] was 60.5 µM, the TGI [5] was greater than 100 µM and the TGI [6] was 31.5 µM. It also gave a TGI [7] of 10.5 µM, a TGI [8] of 30.8 µM and a TGI [9] of 0.472 µM.
`CC(C)(C)OC(=O)NC(CO)c1cccc(OCc2ccccc2)c1` (stereo not drawn) gave a TGI [10] greater than 100 µM, a TGI [2] greater than 100 µM and a TGI [3] greater than 100 µM. It also gave a TGI [4] greater than 100 µM, a TGI [5] greater than 100 µM and a TGI [6] greater than 100 µM. For the same compound, the TGI [7] was greater than 100 µM, the TGI [8] was 99.4 µM and the TGI [9] was greater than 100 µM.
Compound `CCOC(=O)[C@@H](C)C[C@H](Cc1ccccc1)NC(=O)c1csc([C@@H](C[C@H](C(C)C)N(C)C(=O)[C@H](CC)NC(=O)[C@H]2CCCCN2C)OC(C)=O)n1` has a GI50 [1] of 0.0675 µM, a TGI [1] greater than 15.7 µM and a GI50 [2] of 0.00193 µM. The TGI [2] was greater than 16.7 µM, the GI50 [3] was less than 0.00167 µM and the TGI [3] was 0.236 µM. It also gave a GI50 [4] of 0.00397 µM, a TGI [4] greater than 16.7 µM and a GI50 [5] of 0.00199 µM. For the same compound, the TGI [5] was greater than 16.7 µM, the GI50 [6] was 0.00171 µM and the TGI [6] was 0.00762 µM. For the same compound, the GI50 [7] was less than 0.00167 µM, the TGI [7] was greater than 16.7 µM and the GI50 [8] was greater than 16.7 µM. For the same compound, the TGI [8] was greater than 16.7 µM, the GI50 [9] was less than 0.00167 µM and the TGI [9] was 0.362 µM.
`Cc1nn(-c2nc3ccccc3s2)c2c1C(=O)c1ccccc1-2` gave a TGI [10] greater than 100 µM, a TGI [2] greater than 100 µM and a TGI [3] greater than 100 µM. The TGI [4] was 64.1 µM, the TGI [5] was greater than 100 µM and the TGI [6] was greater than 100 µM. For the same compound, the TGI [7] was greater than 100 µM, the TGI [8] was greater than 100 µM and the TGI [9] was greater than 100 µM.
`COc1ccc(-c2nc(N3CCN(C(=O)C4CCCCC4)CC3)c3c4c(sc3n2)CCCC4)cc1` gave a GI50 [1] greater than 100 µM, a TGI [1] greater than 100 µM and a GI50 [10] of 14.2 µM. The TGI [10] was 81.3 µM, the GI50 [2] was 41.2 µM and the TGI [2] was greater than 100 µM. For the same compound, the GI50 [4] was greater than 100 µM, the TGI [4] was greater than 100 µM and the GI50 [5] was 25.7 µM. For the same compound, the TGI [5] was greater than 100 µM, the GI50 [6] was greater than 100 µM and the TGI [6] was greater than 100 µM. The GI50 [7] was greater than 100 µM, the TGI [7] was greater than 100 µM and the GI50 [8] was greater than 100 µM. The TGI [8] was greater than 100 µM, the GI50 [9] was 27.9 µM and the TGI [9] was 96.9 µM.
In the case of `C=C(CN1CCN(c2cccc(C(F)(F)F)n2)CC1)c1ccc(C(=S)Nc2ccccc2N)cc1`, the GI50 [1] is reported as 3.12 µM, the TGI [1] is reported as greater than 100 µM and the GI50 [10] is reported as 2.57 µM. The TGI [10] was greater than 100 µM, the GI50 [2] was 6.93 µM and the TGI [2] was greater than 100 µM. For the same compound, the GI50 [4] was 3.01 µM, the TGI [4] was greater than 100 µM and the GI50 [5] was 4.12 µM. The TGI [5] was greater than 100 µM, the GI50 [6] was 3.81 µM and the TGI [6] was 41.3 µM. It also gave a GI50 [7] of 1.57 µM, a TGI [7] of 4.48 µM and a GI50 [8] of 3.33 µM. For the same compound, the TGI [8] was 18.8 µM, the GI50 [9] was 3.01 µM and the TGI [9] was 31.4 µM.
In the case of `c1ccc2c(c1)[nH]c1c2nc2ncccn21`, the TGI [10] is reported as greater than 100 µM, the TGI [2] is reported as greater than 100 µM and the TGI [3] is reported as greater than 100 µM. The TGI [4] was greater than 100 µM, the TGI [5] was greater than 100 µM and the TGI [6] was greater than 100 µM. It also gave a TGI [7] greater than 100 µM, a TGI [8] greater than 100 µM and a TGI [9] greater than 100 µM.
For `O=C(NCC(O)CNC(=O)C(F)(F)F)C(F)(F)F`, the TGI [10] was greater than 100 µM, the TGI [2] was greater than 100 µM and the TGI [3] was greater than 100 µM. It also gave a TGI [4] greater than 100 µM, a TGI [5] greater than 100 µM and a TGI [6] greater than 100 µM. For the same compound, the TGI [7] was greater than 100 µM, the TGI [8] was greater than 100 µM and the TGI [9] was greater than 100 µM.
`OCC1OC(n2cnc3c(Cl)nc(Cl)cc32)C(O)C1O` (stereo not drawn) was tested, and the GI50 [1] was greater than 100 µM, the TGI [1] was greater than 100 µM and the GI50 [2] was greater than 100 µM. It also gave a TGI [2] greater than 100 µM, a GI50 [3] of 37.4 µM and a TGI [3] greater than 100 µM. The GI50 [5] was greater than 100 µM, the TGI [5] was greater than 100 µM and the GI50 [6] was greater than 100 µM. It also gave a TGI [6] greater than 100 µM, a GI50 [7] greater than 100 µM and a TGI [7] greater than 100 µM. For the same compound, the GI50 [9] was greater than 100 µM and the TGI [9] was greater than 100 µM.
`COc1cccc2c1c(C1=C(c3cn(C)c4ccccc34)C(=O)NC1=O)cn2C` was tested, and the GI50 [1] was greater than 25 µM, the TGI [1] was greater than 25 µM and the GI50 [10] was greater than 25 µM. For the same compound, the TGI [10] was greater than 25 µM, the GI50 [2] was greater than 25 µM and the TGI [2] was greater than 25 µM. For the same compound, the GI50 [4] was greater than 25 µM, the TGI [4] was greater than 25 µM and the GI50 [5] was greater than 25 µM. The TGI [5] was greater than 25 µM, the GI50 [6] was greater than 25 µM and the TGI [6] was greater than 25 µM. It also gave a GI50 [7] greater than 23.9 µM, a TGI [7] greater than 25 µM and a GI50 [8] greater than 25 µM. It also gave a TGI [8] greater than 25 µM, a GI50 [9] greater than 25 µM and a TGI [9] greater than 25 µM.
In the case of `COc1cc2c(cc1OC)C(=O)Cc1ccc(OC)c(OC)c1CN(C)CC2`, the TGI [10] is reported as 48.4 µM, the TGI [2] is reported as greater than 100 µM and the TGI [3] is reported as 98.5 µM. For the same compound, the TGI [4] was greater than 100 µM, the TGI [5] was greater than 100 µM and the TGI [6] was greater than 100 µM. For the same compound, the TGI [7] was greater than 100 µM, the TGI [8] was greater than 100 µM and the TGI [9] was greater than 100 µM.
Compound `O=c1oc(=O)c2oc3ccccc3oc1=2` has a TGI [10] greater than 100 µM, a TGI [2] greater than 100 µM and a TGI [3] greater than 100 µM. The TGI [4] was greater than 100 µM, the TGI [5] was greater than 100 µM and the TGI [6] was greater than 100 µM. For the same compound, the TGI [7] was greater than 100 µM, the TGI [8] was greater than 100 µM and the TGI [9] was greater than 100 µM.
For `O=C(COC(=O)c1cccc2c(=O)c3ccccc3[nH]c12)Nc1ccccc1`, the TGI [10] was greater than 100 µM, the TGI [2] was greater than 100 µM and the TGI [3] was greater than 100 µM. For the same compound, the TGI [4] was greater than 100 µM, the TGI [5] was greater than 100 µM and the TGI [6] was greater than 100 µM. The TGI [7] was greater than 100 µM, the TGI [8] was greater than 100 µM and the TGI [9] was 73.4 µM.
